# Reference: US20070173438A1, “[PSI[CH2NH]PG4] glycopeptide antibiotic analogs” (The Scripps Research Institute, priority 2006, published 2007)
# Several values for one entry are separate records, joined by “and”; a condition that tells them apart may be missing. Equal entries are not always repeated.
# Experiments:
# [1] = system: N,N′-Ac2-Lys-D-Ala-D-Ala (2); experiment: UV difference titration binding constant with model ligand N,N′-Ac2-Lys-D-Ala-D-Ala; conditions: for Ka, affinity for D-Ala-D-Ala (Ac2-L-Lys-D-Ala-D-Ala, 2): association constant, 0.02 M sodium citrate buffer, Scatchard plot
# Experimental: (§1) Binding Constant Determination. The binding constants for compounds 5 and 41 for association with the model ligands N,N′-Ac2-Lys-D-Ala-D-Ala and N,N′-Ac2-Lys-D-Ala-D-Lac were determined according to literature (Nieto, M.; Perkins, H. R. Biochem. J. 1971, 124, 845; Nieto, M.; Perkins, H. R. Biochem. J. 1971, 124, 773; Nieto, M.; Perkins, H. R. Biochem. J. 1971, 124, 789) protocols. UV difference experiments were carried out on a CARY 3E UV-Vis spectrometer. UV scans were run with a baseline correction that consisted of 0.02 M sodium citrate buffer and covered a range from 200 to 345 nm. A solution of 5 or 41 (1.1×10^−4 M in 0.02 M sodium citrate buffer) was placed into a quartz UV cuvette (1.0 cm path length) and the UV spectrum recorded versus a reference cell containing 0.02 M sodium citrate buffer. UV spectra were recorded after each addition of a solution of N,N′-Ac2-Lys-D-Ala-D-Ala or N,N′-Ac2-Lys-D-Ala-D-Lac in 0.02 M sodium citrate buffer to each cell from 0.1 to 140.0 equivalents. The absorbance value at the λmax was recorded and the running change in absorbance, ΔAx equiv (Ainitial−Ax equiv, ) measured. The number of ligand equivalents was plotted versus ΔA to afford the ligand binding titration curve. The break point of this curve is the saturation point of the system and its xy coordinates determined by establishing the intersection of the linear fits of the pre and postsaturation curves. ΔAsaturation was calculated and employed to determine the concentration of free ligand in solution at each titration. ΔA was plotted versus ΔA/free ligand concentration to give a Scatchard plot from which the binding constants were determined.
# [2] = system: N,N′-Ac2-Lys-D-Ala-D-Lac (4); experiment: UV difference titration binding constant with model ligand N,N′-Ac2-Lys-D-Ala-D-Lac; conditions: for Ka, affinity for D-Ala-D-Lac (Ac2-L-Lys-D-Ala-D-Lac, 4): association constant, 0.02 M sodium citrate buffer, Scatchard plot
# Experimental: as §1
# [3] = system: VanA Enterococcus faecalis (BM4166); experiment: antimicrobial assay against VanA resistant organism; format: cell-based; conditions: for potency weaker than vancomycin and its aglycon against sensitive E. faecalis: MIC against VanA BM4166 compared with vancomycin/aglycon MIC against sensitive E. faecalis
# Source text: (§2) It is the most difficult of the resistant organisms to treat (vs VanB) and characteristic of such organisms, they grow unchallenged enlisting a D-Ala-D-Ala peptidoglycan cell wall precursor, but switch to D-Ala-D-Lac upon glycopeptide treatment.
# [4] = system: N,N′-Ac2-Lys-D-Ala-D-Lac (4); conditions: cited from earlier work
# [5] = system: 3 (methylene analogue of Ac2-L-Lys-D-Ala-D-Ala); conditions: cited from earlier work
# [6] = system: sensitive E. faecalis; experiment: antimicrobial activity against sensitive E. faecalis; format: cell-based; conditions: Enterococcus faecalis
# Source text: as §2
# [7] = system: enterococci resistant to vancomycin, VanA and VanB; conditions: literature; cited from earlier work
"increase in binding affinity for D-Ala-D-Ala, 5 versus 41 ([1]; 5 versus carbamate 41)","Ka, affinity for D-Ala-D-Ala (Ac2-L-Lys-D-Ala-D-Ala, 2) [1]",reduction in affinity for D-Ala-D-Ala relative to the vancomycin aglycon ([1]; relative to vancomycin aglycon),"increase in binding affinity for D-Ala-D-Lac, 5 versus 41 ([2]; 5 versus carbamate 41)","Ka, affinity for D-Ala-D-Lac (Ac2-L-Lys-D-Ala-D-Lac, 4) [2]",increase in affinity for D-Ala-D-Lac relative to the vancomycin aglycon ([2]; relative to vancomycin aglycon),MIC ([3]; VanA E. faecalis BM4166),Compound,potency weaker than vancomycin and its aglycon against sensitive E. faecalis [3],potency relative to vancomycin or its aglycon (more potent) ([3]; VanA E. faecalis BM4166),reduction of binding to D-Ala-D-Lac ligand versus D-Ala-D-Ala ([4]; literature),destabilizing lone pair/lone pair interaction with ester oxygen of 4 ([4]; share of lost binding energy),"reduced binding affinity of 4 ([4]; versus 2, total loss)",affinity for 3 less than that of 2 ([5]; relative to Ac2-L-Lys-D-Ala-D-Ala (2)),affinity for 3 greater than that of 4 ([5]; relative to Ac2-L-Lys-D-Ala-D-Lac (4)),MIC [6],drop in antimicrobial activity with D-Ala-D-Lac resistant bacteria [7],MIC ([3]; Enterococcus faecalis)
3 fold,4800 M⁻¹,37 fold and 35 fold,1.2 fold,5200 M⁻¹,43 fold and 40 fold,31 µg/mL,"CN[C@H](CC(C)C)C(=O)N[C@H]1C(=O)N[C@@H](CC(N)=O)C(=O)N[C@H]2CN[C@H]3C(=O)N[C@H](C(=O)N[C@H](C(=O)O)c4cc(O)cc(O)c4-c4cc3ccc4O)[C@H](O)c3ccc(c(Cl)c3)Oc3cc2cc(c3O)Oc2ccc(cc2Cl)[C@H]1O [Compound 5, [ψ[CH2NH]Tpg^4]vancomycin aglycon]",roughly 30 fold,roughly 40 fold,,,,,,,,
,1600 M⁻¹,,,4100 M⁻¹,,31 µg/mL,CN[C@H](CC(C)C)C(=O)N[C@H]1C(=O)N[C@@H](CC#N)C(=O)N[C@H]2CN(C(=O)OC)[C@H]3C(=O)N[C@H](C(=O)N[C@H](COCOCCOC)c4cc(OC)cc(OC)c4-c4cc3ccc4OC)[C@H](O)c3ccc(c(Cl)c3)Oc3cc2cc(c3OC)Oc2ccc(cc2Cl)[C@H]1O [Compound 41],roughly 30 fold,roughly 40 fold,,,,,,,,
,,,,,,,CN[C@H](CC(C)C)C(=O)N[C@H]1C(=O)N[C@@H](CC(N)=O)C(=O)N[C@H]2C(=O)N[C@H]3C(=O)N[C@H](C(=O)N[C@H](C(=O)O)c4cc(O)cc(O)c4-c4cc3ccc4O)[C@H](O)c3ccc(c(Cl)c3)Oc3cc2cc(c3O[C@@H]2O[C@H](CO)[C@@H](O)[C@H](O)[C@H]2O[C@H]2C[C@](C)(N)[C@H](O)[C@H](C)O2)Oc2ccc(cc2Cl)[C@H]1O [vancomycin],,,1000 fold,2.6 kcal/mol,4.1 kcal/mol,approximately 10 fold,100 fold,1 to 2.5 µg/mL,1000 fold,2000 µg/mL

Compound,"increase in binding affinity for D-Ala-D-Ala, 5 versus 41 ([1]; 5 versus carbamate 41)","Ka, affinity for D-Ala-D-Ala (Ac2-L-Lys-D-Ala-D-Ala, 2) [1]",reduction in affinity for D-Ala-D-Ala relative to the vancomycin aglycon ([1]; relative to vancomycin aglycon),"increase in binding affinity for D-Ala-D-Lac, 5 versus 41 ([2]; 5 versus carbamate 41)","Ka, affinity for D-Ala-D-Lac (Ac2-L-Lys-D-Ala-D-Lac, 4) [2]",increase in affinity for D-Ala-D-Lac relative to the vancomycin aglycon ([2]; relative to vancomycin aglycon),MIC ([3]; VanA E. faecalis BM4166),potency weaker than vancomycin and its aglycon against sensitive E. faecalis [3],potency relative to vancomycin or its aglycon (more potent) ([3]; VanA E. faecalis BM4166),reduction of binding to D-Ala-D-Lac ligand versus D-Ala-D-Ala ([4]; literature),destabilizing lone pair/lone pair interaction with ester oxygen of 4 ([4]; share of lost binding energy),"reduced binding affinity of 4 ([4]; versus 2, total loss)",affinity for 3 less than that of 2 ([5]; relative to Ac2-L-Lys-D-Ala-D-Ala (2)),affinity for 3 greater than that of 4 ([5]; relative to Ac2-L-Lys-D-Ala-D-Lac (4)),MIC [6],drop in antimicrobial activity with D-Ala-D-Lac resistant bacteria [7],MIC ([3]; Enterococcus faecalis)
"CN[C@H](CC(C)C)C(=O)N[C@H]1C(=O)N[C@@H](CC(N)=O)C(=O)N[C@H]2C(=O)N[C@H]3C(=O)N[C@H](C(=O)N[C@H](C(=O)O)c4cc(O)cc(O)c4-c4cc3ccc4O)[C@H](O)c3ccc(c(Cl)c3)Oc3cc2cc(c3O)Oc2ccc(cc2Cl)[C@H]1O [vancomycin aglycon, reference compound]",,170000 M⁻¹,,,120 M⁻¹,,640 µg/mL,,,,,,,,,,
